Experimental data as given in patent publication US20090143465A1 (SUMITOMO CHEMICAL COMPANY, LIMITED, priority 2006, published 2009).

Tested on: Adult houseflies
Assay: Housefly knock-down test, oil solution sprayed in cubic chamber (Test Example 1)
Format: in vivo, houseflies (Musca domestica)
Conditions: 0.7 ml of 0.00625% oil solution sprayed into 70 cm cubic chamber; adult houseflies (5 males and 5 females); counted up to 10 minutes after spraying
Description: A solution of 0.00625 part of the present compound (1) in 10 parts of dichloromethane was mixed with 89.99375 parts of deodorized kerosene to obtain a 0.00625% oil solution.
Adult houseflies (5 males and 5 females) were left in a cubic chamber (70 cm at each side). Into the chamber, 0.7 ml of 0.00625% oil solution of the present compound (1) prepared above was sprayed with a spray gun at a pressure of 8.8×10^4 Pa from a small window on the side of the chamber. Then, up to 10 minutes after spraying, the number of knocked-down insects was counted with time. From the results, a time required for knocking down 90% of the tested insects (KT90) was calculated.
In addition, the same test was carried out that 4-propargyl-2,3,5,6-tetrafluorobenzyl (1R)-trans-3-(2-methyl-1-propenyl)-2,2-dimethylcyclopropanecarboxylate represented by the formula: […]
(hereinafter, referred to as the comparative compound (A)), which is the compound described in JP-A 61-207361, was used as a comparative compound (repeated twice).

| SMILES | KT90 (time required for knocking down 90% of the tested insects) [min] |
| --- | --- |
| C#CCc1c(F)c(F)c(COC(=O)C2C(/C=C(\C#N)C(=O)OC(C)C)C2(C)C)c(F)c1F (stereo not shown) | 5.1 |
| C#CCc1c(F)c(F)c(COC(=O)C2C(/C=C(\C#N)C(=O)OCC)C2(C)C)c(F)c1F (stereo not shown) | 2.0 |
| C#CCc1c(F)c(F)c(COC(=O)[C@@H]2[C@@H](C=C(C)C)C2(C)C)c(F)c1F [Comparative compound (A), 4-propargyl-2,3,5,6-tetrafluorobenzyl (1R)-trans-3-(2-methyl-1-propenyl)-2,2-dimethylcyclopropanecarboxylate, reference compound] | >10 |
| C#CCc1c(F)c(F)c(COC(=O)C2C(/C=C(\C#N)C(=O)OC)C2(C)C)c(F)c1F (stereo not shown) | 2.6 |
